Reference: PubChem BioAssay (NCI)
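In this assay, cells in 96-well plates receive the compound at five concentrations for 48 hours. Endpoints are linearly interpolated between the surrounding concentrations. Definition used: TGI = concentration required for complete inhibition of growth.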

Tests used:
Assay in all cases: NCI-60 cell line screen, 48 h
CAKI-1 renal = system: CAKI-1 renal
COLO 205 colon = system: COLO 205 colon
HCC-2998 colon = system: HCC-2998 colon
HCT-15 colon = system: HCT-15 colon
HOP-62 NSCLC = system: HOP-62 NSCLC
IGROV1 ovarian = system: IGROV1 ovarian
LOX IMVI melanoma = system: LOX IMVI melanoma
MDA-N = system: MDA-N
NCI-H460 lung = system: NCI-H460 lung
OVCAR-5 ovarian = system: OVCAR-5 ovarian
RPMI-8226 leukemia = system: RPMI-8226 leukemia
RXF 393 renal = system: RXF 393 renal
SF-268 CNS = system: SF-268 CNS
SNB-19 CNS = system: SNB-19 CNS
U251 CNS = system: U251 CNS
UACC-257 melanoma = system: UACC-257 melanoma
UACC-62 melanoma = system: UACC-62 melanoma
SK-MEL-2 melanoma = system: SK-MEL-2 melanoma

Measured: TGI

C[n+]1ccc(/C2=C3\C=CC(=N3)/C(c3cc[n+](C)cc3)=c3/cc/c([nH]3)=C(\c3cc[n+](C)cc3)C3=N/C(=C(/c4cc[n+](C)cc4)C4C=CC2N4)C=C3)cc1
> 32.2 µM: U251 CNS
not listed: SK-MEL-2 melanoma
> 100 µM: all other assays above

CCC(CCCN)Nc1cc(OC)cc2c(C)ccnc12 (stereo not drawn)
58.4 µM: HCT-15 colon
44.9 µM: HCC-2998 colon
27.9 µM: SNB-19 CNS
33.7 µM: UACC-257 melanoma
36.6 µM: IGROV1 ovarian
29.5 µM: CAKI-1 renal
31.6 µM: LOX IMVI melanoma | SF-268 CNS
47.5 µM: COLO 205 colon
41.5 µM: SK-MEL-2 melanoma
32.3 µM: NCI-H460 lung
29.2 µM: HOP-62 NSCLC
27 µM: RXF 393 renal
32.5 µM: OVCAR-5 ovarian
34.1 µM: MDA-N

COC(=O)[C@H](CCSC)NC(=O)N[C@H](C)c1ccccc1
not listed: RXF 393 renal
> 100 µM: all other assays above

C=CCC1(OCc2ccccc2)C(=O)C(=O)OC1C1COC(C)(C)O1 (stereo not drawn)
not listed: IGROV1 ovarian
> 100 µM: all other assays above

CC(=O)C1C(=O)C(=O)N(c2cccc([N+](=O)[O-])c2)C1=O (stereo not drawn)
not listed: RPMI-8226 leukemia
> 100 µM: all other assays above

Cn1c(=O)c2c(nc3n2CC(=O)N3CCCCl)n(C)c1=O
not listed: RXF 393 renal
> 100 µM: all other assays above

NC(N)=NCC[C@H](NC(=O)OCCCCCn1ccc(=O)[nH]c1=O)C(=O)O
not listed: IGROV1 ovarian
> 100 µM: all other assays above

O=C(c1ccccc1)c1ccc2nc(-c3c(Cl)c(Cl)c(Cl)c(Cl)c3C(=O)N/N=C/c3ccc(Cl)cc3)[nH]c2c1
72.4 µM: SK-MEL-2 melanoma
51.3 µM: RPMI-8226 leukemia
85.9 µM: RXF 393 renal
not listed: HCC-2998 colon | NCI-H460 lung | UACC-62 melanoma
> 100 µM: all other assays above

CCC1(c2ccccc2)C(=O)N=C(c2ccccc2)N1CCc1ccccc1 (stereo not drawn)
not listed: NCI-H460 lung
> 100 µM: all other assays above

Cn1c(=O)c2[nH]c(CCNC(=O)c3ccccc3)nc2n(C)c1=O
not listed: COLO 205 colon | RPMI-8226 leukemia
> 100 µM: all other assays above

Cc1cc(C)c(-n2[nH]c(=O)n(C)c2=O)c(C)c1
not listed: HOP-62 NSCLC
> 100 µM: all other assays above

CC1=NN(C(=O)c2ccncc2)C(=O)C1
not listed: RPMI-8226 leukemia
> 100 µM: all other assays above

CCOC(=O)/C(C=Nc1c(C)n(C)n(-c2ccccc2)c1=O)=C(/C)O
not listed: HOP-62 NSCLC | NCI-H460 lung | SF-268 CNS | SNB-19 CNS
> 100 µM: all other assays above
